Laboratory results reported in patent US20250326815A1, “STAPLE-CONTAINING POLYPEPTIDES AND APPLICATION THEREOF” (Soter Biopharma Pte. Ltd., priority 2021, published 2025).

Experiments:
human plasma albumin = assay: Plasma protein binding (PPB), human; assay type: in vitro ADME; design: key: NA indicates that the plasma protein binding is too high, and no free drug is detected at a normal plasma protein concentration; details: ultracentrifugation
Description: (§1) The binding degree of the assay compound to human/mouse plasma albumin was studied.
(§2) 1. Matrix preparation: on the day of the assay, plasma was thawed in cold water and centrifuged at 3220 rpm for 5 min to remove all clots. The pH of the resulting plasma was measured and adjusted to 7.4±0.1 using 1% phosphoric acid or IN sodium hydroxide as needed.
(§3) 2. Dilution procedure for the assay compound: the assay compound was dissolved in dimethyl sulfoxide (DMSO) to prepare stock solutions with concentrations of 10 mM and 2 mM, respectively. A 40 μM working solution was prepared by diluting 2 μL of stock solution (2 mM) with 98 μL of DMSO. A 400 μM working solution of the control compound was prepared by diluting 10 μL of stock solution with 240 μL of DMSO. The working solution of the compound (5 μL) was mixed well with a blank matrix (995 μL) at a ratio of 1:200 to prepare a loading matrix.
(§4) 3.1 An equal volume of 30 μL of loading matrix (n=2) was transferred to a sample collection plate to prepare a time 0 (T0) sample for residue determination. […]
(§5) 3.4 At the end of centrifugation, 30 μL of protein-free samples and 30 μL of T samples were transferred from the second layer of the supernatant (below the top layer) to a new sample collection plate. […] The mixture was centrifuged at 4000 rpm for 20 min and 100 μL of supernatant from each sample was analyzed by LC-MS/MS.

GIPR = target: T1, GIPR (Homo sapiens, UniProt P48546); assay: In vitro agonistic activity on GIPR (cAMP assay); assay type: cell-based; details: CHO cell line; for Agonistic activity on GIPR Max Activity (%): Max Dose 20 nM
T1 construct: host or cells: CHO
T1 sequence (P48546 22-466): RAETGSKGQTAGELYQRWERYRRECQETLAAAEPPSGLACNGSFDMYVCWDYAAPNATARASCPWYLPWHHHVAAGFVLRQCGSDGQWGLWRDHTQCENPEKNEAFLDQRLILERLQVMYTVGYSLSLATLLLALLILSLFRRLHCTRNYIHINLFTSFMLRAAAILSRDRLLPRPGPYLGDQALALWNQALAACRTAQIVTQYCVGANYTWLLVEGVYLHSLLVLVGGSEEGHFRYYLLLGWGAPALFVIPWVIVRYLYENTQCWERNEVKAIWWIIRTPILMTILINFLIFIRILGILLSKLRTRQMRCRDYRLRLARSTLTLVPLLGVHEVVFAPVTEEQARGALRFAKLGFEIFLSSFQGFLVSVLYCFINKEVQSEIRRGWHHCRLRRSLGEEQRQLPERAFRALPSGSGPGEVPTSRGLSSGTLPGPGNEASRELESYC
Description: The cell lines were constructed by Shanghai WuXi AppTec.
The compounds to be assayed were serially diluted 4-fold with Bravo to obtain 10 concentrations, with a starting concentration of 30 μM.
1) 100 nL of the compound was transferred to an OptiPlate-384 plate using Echo.
2) The OptiPlate-384 plate was centrifuged at 1000 rpm for 5 seconds.
1) A GLP-1R/GIPR/GCGR cell cryopreservation tube was quickly placed in warm water at 37° C. to thaw.
2) The cell suspension was transferred to a 15 mL centrifuge tube, and gently washed with 10 ml of HBSS.
3) The centrifuge tube was centrifuged at 1000 rpm at room temperature for 1 minute.
4) The supernatant was discarded.
5) The cells at the bottom were gently dispersed and gently washed with 10 ml of HBSS. The cells were centrifuged and sedimented, and finally resuspended with the assay buffer.
6) Vi-cell was used to measure the cell density and viability.
7) The concentration of GLP-1R/GIPR/GCGR cells was diluted to 2.0*105/mL with the assay buffer.
8) […] of the diluted cell suspension was transferred to the OptiPlate-384 plate.
9) The plate was incubated at room temperature for 30 minutes.
1) 10 μL of 800 nM gradient diluted cAMP standard was added into an empty well of the OptiPlate-384 plate.
2) 10 μL of cAMP assay reagent was added.
3) The OptiPlate-384 plate was covered with a TopSeal-A film and incubated at room temperature for 60 minutes.
The TopSeal-A was peeled off and the plate was read on the EnVision.

mouse plasma albumin = assay: Plasma protein binding (PPB), mouse; assay type: in vitro ADME; design: key: NA indicates that the plasma protein binding is too high, and no free drug is detected at a normal plasma protein concentration; details: ultracentrifugation
Description: as §1, §2, §3, §4, §5

STZ-NASH mouse model = assay: In vivo drug efficacy in STZ-NASH mouse model; design: species or system C57BL/6 mice; details: STZ-NASH mice, 20 nmol/kg SC every two days, 5 weeks, endpoint
Description: Drug efficacy of the assay substance in the NASH model induced by streptozotocin (STZ)+high-fat diet (HFD) in C57BL/6 mice was verified.
Modeling method: Newborn mice were subcutaneously injected with STZ (200 μg/mouse) within 48 hours after birth. After 4 weeks of breastfeeding, animals with a fasting blood glucose level of >12 mmol/L were selected and subjected to a HFD feeding for 6 consecutive weeks to finally establish the NASH model. Another 8 animals were selected without STZ injection and HFD feeding (normal control group).
Administration scheme: Administration was started after one week of HFD feeding, and the first day of administration was set as Day 1. Then, the mice were subcutaneously injected every two days for 5 consecutive weeks.
Detection at the endpoint of the assay: Pathological hematoxylin-eosin staining and picro sirius red staining were performed.

[1] = Plasma stability assay (PLS), human; assay type: in vitro ADME; details: pH 7.4, 37° C., read-out: PLS (human) T1/2

Structure (SMILES) | PPB % unbound (human) (human plasma albumin) | EC50 (GIPR) [nM] | Agonistic activity on GIPR Max Activity (%) (GIPR) | PPB % unbound (mouse) (mouse plasma albumin) | Ballooning score (STZ-NASH mouse model) | Fibrosis (%) (STZ-NASH mouse model) | Inflammation score (STZ-NASH mouse model) | NAS score (STZ-NASH mouse model) | Steatosis score (STZ-NASH mouse model) | half-life at 2 μM [1] [h]
CC(C)C[C@H](NC(=O)[C@H](CC(C)C)NC(=O)[C@H](Cc1c[nH]c2ccccc12)NC(=O)[C@@H]1CCCCNC(=O)CN(C(=O)COCCOCCNC(=O)COCCOCCNC(=O)CC[C@H](NC(=O)CCCCCCCCCCCCCCCCCCC(=O)O)C(=O)O)CC(=O)NCCCC[C@H](NC(=O)[C@H](C)NC(=O)[C@H](CCCCN)NC(=O)[C@H](CCCCN)NC(=O)[C@H](CCC(=O)O)NC(=O)[C@H](CC(=O)O)NC(=O)[C@H](CC(C)C)NC(=O)[C@H](Cc2ccc(O)cc2)NC(=O)[C@H](CCCCN)NC(=O)[C@H](CO)NC(=O)[C@H](Cc2ccc(O)cc2)NC(=O)[C@H](CC(=O)O)NC(=O)[C@H](CO)NC(=O)[C@@H](NC(=O)[C@H](Cc2ccccc2)NC(=O)[C@@H](NC(=O)CNC(=O)[C@H](CCC(N)=O)NC(=O)C(C)(C)NC(=O)[C@@H](N)Cc2c[nH]cn2)[C@@H](C)O)[C@@H](C)O)C(=O)N[C@@H](CCC(=O)O)C(=O)N[C@@H](Cc2ccccc2)C(=O)N[C@@H](C(C)C)C(=O)N1)C(=O)N[C@@H](CCC(=O)O)C(=O)NCC(=O)NCC(=O)N1CCC[C@H]1C(=O)N[C@@H](CO)C(=O)N[C@@H](CO)C(=O)NCC(N)=O [WX004] | NA/NA | > 20 | 4.12 | NA/NA |  |  |  |  |  | 
CC(C)C[C@H](NC(=O)[C@H](CC(C)C)NC(=O)[C@H](Cc1c[nH]c2ccccc12)NC(=O)[C@H](CCC(=O)O)NC(=O)[C@@H](NC(=O)[C@H](Cc1ccccc1)NC(=O)[C@H](CCC(=O)O)NC(=O)[C@@H]1CCCCNC(=O)CN(C(=O)COCCOCCNC(=O)COCCOCCNC(=O)CC[C@H](NC(=O)CCCCCCCCCCCCCCCCCCC(=O)O)C(=O)O)CC(=O)NCCCC[C@H](NC(=O)[C@H](CCC(=O)O)NC(=O)[C@H](CC(=O)O)NC(=O)[C@H](CC(C)C)NC(=O)[C@H](Cc2ccc(O)cc2)NC(=O)[C@H](CCCCN)NC(=O)[C@H](CO)NC(=O)[C@H](Cc2ccc(O)cc2)NC(=O)[C@H](CC(=O)O)NC(=O)[C@H](CO)NC(=O)[C@@H](NC(=O)[C@H](Cc2ccccc2)NC(=O)[C@@H](NC(=O)CNC(=O)[C@H](CCC(N)=O)NC(=O)C(C)(C)NC(=O)[C@@H](N)Cc2c[nH]cn2)[C@@H](C)O)[C@@H](C)O)C(=O)N[C@@H](CCCCN)C(=O)N[C@@H](C)C(=O)N1)C(C)C)C(=O)N[C@@H](CCC(=O)O)C(=O)NCC(=O)NCC(=O)N1CCC[C@H]1C(=O)N[C@@H](CO)C(=O)N[C@@H](CO)C(=O)NCC(N)=O [WX001] | NA/NA | > 20 | 2.26 | NA/NA | 0 | 1.21 | 1.63 | 2.63 | 1.0 | > 4.82
